Patent US12613249B2 (THE ROYAL INSTITUTION FOR THE ADVANCEMENT OF LEARNING / …, priority 2019, dated 2026)
Square brackets hold non-standard residues; d marks the D form. Peptide text beside a SMILES is read from it.

What was measured:
[1] = system: metalloproteases; assay: Metalloprotease inhibition in APP-overexpressing SH-SY5Y cells, 4-plex MSD; type: cell-based, human; details: supernatant
Excerpt: (§1) Using the ELISA Conversion Kit from Meso Scale Discovery (MSD, USA), an electrochemiluminescence-based assay was developed (neo-epitope specific Aβ34 and the sulfo-tagged 6E10 (binds to the N-terminus of human Aβ) or the sulfo-tagged 4G8 for murine samples (binds to the mid domain of Aβ)). High-bind or custom-printed 4-plex plates (using the mab34, 4G8 (Biolegend) for pan-Aβ assay, G2−10 for 1-plex Aβ40 assay, and MSD's validated mouse monoclonal anti-Aβ38, anti-Aβ40, as well as anti-Aβ42 antibodies, see MSD Aβ peptide V-PLEX) were blocked (MSD 5% Blocker A in PBS) for 1 h at 22° C. and washed three times with PBS-T for 1 min. at 22° C., loaded with SULFO-TAG™ 6E10 or 4G8 detection antibody (diluted to 1× in MSD Diluent 100) and sample or peptide calibrator (in MSD Diluent 35 or cell culture medium), and incubated for 16 h at 4° C. with shaking at 600 rpm. After three washing steps with PBS-T for 1 min. at 22° C., 150 μL 2×MSD read buffer were added per well. All plates were read using a MSD QuickPlex SQ 120 Imager and data analyzed using MSD Workbench® software. Standard curves were fitted using a non-linear four-parameter logistic fit with 1/y^2 weighting. The equation is: […]

[2] = system: metalloproteases; assay: Metalloprotease inhibition in BACE1-overexpressing SH-SY5Y cells, 4-plex MSD; type: cell-based, human; details: supernatant
Excerpt: as §1

[3] = Ex-vivo stability in mouse whole blood, MALDI-TOF MS; type: in vitro ADME; details: both sexes, C57BL/6, 24 h incubation, read-out: decrease of signal
Description: (§2) The stability of D-AIP in mouse plasma, blood and liver S-9 fraction was investigated to ascertain the metabolic resistance towards proteases and enzymatic activities in these matrices. Whole mouse blood obtained from healthy C57BL/6 male and female mice (6 mice in total) were collected in lithium heparin containing tubes, pooled and stored at 4° C. prior to its use. A fraction of the pooled blood was immediately centrifuged at 1500×g for 10 min at 4° C. to obtain the plasma. The whole blood and plasma samples were spiked with PBS (as control) or AIP (L-AIP, D-AIP or sD-AIP respectively) to make a final concentration of 1 ug/mL and incubated at 37° C. Initial samples were withdrawn to represent t=0 prior to incubation and others were withdrawn 1, 3 and 24 h respectively. Fresh mouse liver also obtained from C57BL/6 male and female mice were pooled, homogenized in 0.15 M Potassium chloride (KCl) and centrifuged at 9000×g. The supernatant represents liver homogenate (S-9) fraction which was mixed with other buffers to formulate the liver S-9 mix as previously described (Kolrep et al., 2017, Toxicol In Vitro, 42:161-170). Liver S-9 mix were spiked with AIP to make a final concentration of 1 μg/mL (L-AIP, D-AIP or sD-AIP respectively) and incubated at 37° C. Just after the addition of NADPH, 100 μL aliquot which represents t=0 samples were withdrawn and others were sampled accordingly at predetermined time points. 400 μL of ice cold MeOH was added to the spiked plasma, blood or liver S-9 fraction respectively, to precipitate the microsomal protein. The samples were then vigorously mixed for 30 s to facilitate extraction and centrifuged for 10 minutes at 13000 rpm, the supernatant was subjected to sample clean up by C18 ZipTip (EMD Millipore Corporation), the eluates were spotted with CHCA matrix on the ground steel MALDI-TOF target and analyzed with MALDI-TOF MS. Applying the t=0 peak area as 100% the intensities of the other time points were compared relatively for interpretation. […]

[4] = Ex-vivo stability in mouse liver S9-fraction, MALDI-TOF MS; type: in vitro ADME, C57BL/6 mice; details: mouse liver S-9 fraction, after 24 h
Description: as §2

[5] = mouse plasma; details: C57BL/6 male and female mice, 37° C., up to 24 h

## CC(C)C[C@H](NP(=O)(O)O[C@@H]1O[C@@H](C)[C@H](O)[C@@H](O)[C@H]1O)C(=O)N[C@@H](Cc1c[nH]c2ccccc12)C(=O)O [PA, phosphoramidon]
[1]
  increase of Aβ34: approximately 9 fold
  increase of Aβ38, Aβ40, and Aβ42: 2-3 fold
[2]
  Aβ38, Aβ40, and Aβ42 levels: not significantly changed
  increase of Aβ34: about 2.5 fold

## C[C@H](O)[C@@H](NC(=O)[C@@H](Cc1ccccc1)NC(=O)[C@@H](CCCCN)NC(=O)[C@@H](CCCNC(=N)N)NC(=O)[C@@H](Cc1ccccc1)NC(=O)[C@H](N)CCC(=O)O)C(=O)NCC(=O)NCC(=O)O [sD-AIP, reference compound] (H-[dE][dF][dR][dK][dF][dT]GG-OH; N-terminus and C-terminus assumed)
[3]
  metabolised at 24 h, 1 ug/mL: ~50%
[4]
  signal intensity compared to the unincubated sample: four-fold reduced intensity

## D-amino acids of RGTFEGKF (H-[dR]G[dT][dF][dE]G[dK][dF]-OH; N-terminus and C-terminus assumed; SMILES C[C@H](O)[C@@H](NC(=O)CNC(=O)[C@H](N)CCCNC(=N)N)C(=O)N[C@H](Cc1ccccc1)C(=O)N[C@H](CCC(=O)O)C(=O)NCC(=O)N[C@H](CCCCN)C(=O)N[C@H](Cc1ccccc1)C(=O)O)
[5]
  not cleaved: relatively stable over 24 h in mouse plasma
